{
  "source": "paper PMC12752606",
  "about": "“METTL10‐Mediated PIAS3 Methylation Links Purine Metabolism to Gastric Cancer Progression” (Advanced Science, 2025)",
  "key": {"[1]": {"assay": "Plasma pharmacokinetics after IV and PO administration", "assay_type": "in vivo, male Sprague–Dawley rats", "conditions": "male, Sprague-Dawley, rat, plasma; for bioavailability: PO 10 mg/kg vs IV 1 mg/kg", "method": "LZQ‐02‐023‐1 was administered to male Sprague–Dawley (SD) rats (n = 3 per group) via intravenous injection at a dose of 1 mg/kg or oral gavage at a dose of 10 mg/kg. Blood samples were collected at predetermined time points, and plasma concentrations of LZQ‐02‐023‐1 were determined using a validated LC‐MS/MS method. Briefly, working solutions of the analyte were prepared by diluting stock solutions with 50% acetonitrile in water to achieve serial concentrations (10, 20, 50, 100, 200, 500, 1000, 5000, and 10 000 ng/mL). Calibration standards were prepared by spiking 5 µL of working solution into 50 µL of blank SD rat plasma, resulting in final concentrations of 1, 2, 5, 10, 20, 50, 100, 500, and 1000 ng/mL in a total volume of 55 µL. Quality control (QC) samples were independently prepared at four concentrations (2, 5, 50, and 800 ng/mL) using blank SD rat plasma, following the same procedure as for the calibration standards. On the day of analysis, 55 µL of each calibration standard, QC sample, or unknown sample (prepared by mixing 50 µL of SD rat plasma with 5 µL of blank solution) was added to 200 µL of acetonitrile:methanol (1:1, v/v) containing an internal standard (IS) mixture for protein precipitation. The samples were vortexed for 30 s, centrifuged at 4000 rpm for 15 min at 4 °C, and the resulting supernatant was diluted threefold with water. A 10 µL aliquot of the diluted supernatant was injected into an AB Sciex Triple Quad 5500 LC‐MS/MS system for quantitative analysis. Pharmacokinetic parameters, including the maximum plasma concentration (Cmax), time to reach Cmax (Tmax), elimination half‐life (t1⁄2), area under the plasma concentration‐time curve (AUC0–t and AUC0–∞), clearance (CL), and volume of distribution (Vd), were calculated using noncompartmental analysis (NCA) in Phoenix WinNonlin 8.3 (Certara; Table S3, Supporting Information)."}, "MKN45 and AGS cells": {"tested_on": "MKN45 and AGS cells", "assay": "Colony formation assay", "assay_type": "cell-based", "conditions": "10 and 20 µM", "method": "Cells (1000 cells/well) were seeded in six‐well plates and provided with fresh culture medium every 3 days. After 14 days of incubation, the medium was removed, and the cells were gently washed three times with room‐temperature PBS. The cells were then fixed with 1 mL of 4% paraformaldehyde per well for 15 min. Next, 1 mL of 0.1% crystal violet solution was added to each well and incubated for 10 min to stain the cells. The crystal violet solution was drained, and the wells were rinsed with running water to remove excess stain, followed by air drying and photography."}, "[2]": {"molecular_target": "other tested methyltransferases", "assay": "Off-target methyltransferase profiling, panel as a whole", "assay_type": "biochemical", "conditions": "all panel enzymes other than METTL10", "method": "To evaluate the off‐target effects of LZQ‐02‐023‐01 on methyltransferase activity, a panel of enzymes was assessed using the MTase‐Glo Methyltransferase Assay (Promega), following the manufacturer's instructions. The assay was performed by ICE Bioscience Inc. Briefly, LZQ‐02‐023‐01 was serially diluted 4‐fold in DMSO to generate a 10‐point concentration gradient, and the resulting solutions were dispensed into 384‐well white assay plates using an Echo acoustic liquid handler (Labcyte). Plates were centrifuged at 1000 rpm for 1 min to ensure even compound distribution. Following a 10‐min preincubation at 25 °C, 2 µL of a substrate solution containing S‐adenosylmethionine (SAM) and the specific methyltransferase substrate (Table S7, Supporting Information) was added to each well. After a brief centrifugation, plates were incubated at 25 °C for 180 min to allow the enzymatic methylation reaction to proceed. Subsequently, 1 µL of MTase‐Glo reagent was added, followed by centrifugation and incubation at 25 °C for 45 min. […]\nLuminescence signals were directly proportional to methyltransferase activity, were recorded using a microplate reader (BMG LABTECH). Percent inhibition was calculated by normalizing luminescence intensities of compound‐treated wells to DMSO‐treated controls, and IC50 values were calculated using GraphPad Prism 8 software."}, "[3]": {"conditions": "iv, 1 mg/kg, IV 1 mg/kg, individual rats R01-R03, read-out: Plasma concentration"}, "[4]": {"conditions": "iv, 1 mg/kg, IV 1 mg/kg, read-out: Plasma concentration, mean"}, "[5]": {"conditions": "po, 10 mg/kg, PO 10 mg/kg, individual rats R04-R06, read-out: Plasma concentration"}, "[6]": {"conditions": "po, 10 mg/kg, PO 10 mg/kg, read-out: Plasma concentration, mean"}},
  "note": "Where two headings read alike, the source gives them in different places.",
  "data": [
    {"smiles": "Cc1ccc(Nc2ncc3c(n2)N(C)C(=O)N(c2cccc(N)c2)C3)cn1", "note": "[LZQ-02-023-01, Three‐(3‐aminophenyl)‐1‐methyl‐7‐((6‐methylpyridin‐3‐yl)amino)‐3,4‐dihydropyrimido [4,5‐d] pyrimidin‐2 (1H)‐one]", "values": [
      {"measurement": "concentration at 0.5 h", "setting": "[1]; [3]", "value": 10.9, "unit": "ng/mL"},
      {"measurement": "concentration at 0.5 h", "setting": "[1]; [4]", "value": 13.1, "unit": "ng/mL"},
      {"measurement": "concentration at 1 h", "setting": "[1]; [3]", "value": 4.26, "unit": "ng/mL"},
      {"measurement": "concentration at 1 h", "setting": "[1]; [4]", "value": 4.21, "unit": "ng/mL"},
      {"measurement": "concentration at 2 h", "setting": "[1]; [3]", "value": 2.35, "unit": "ng/mL"},
      {"measurement": "concentration at 2 h", "setting": "[1]; [4]", "value": 2.11, "unit": "ng/mL"},
      {"measurement": "AUC(0-inf)", "setting": "[1]; iv, 1 mg/kg, IV 1 mg/kg, individual rats R01-R03, read-out: AUCInf", "value": 168, "unit": "ng·h/mL"},
      {"measurement": "AUC(0-t)", "setting": "[1]; iv, 1 mg/kg, IV 1 mg/kg, individual rats R01-R03, read-out: AUClast", "value": 165, "unit": "ng·h/mL"},
      {"measurement": "C0", "setting": "[1]; iv, 1 mg/kg, IV 1 mg/kg, individual rats R01-R03, read-out: C0", "value": 2110, "unit": "ng/mL"},
      {"measurement": "clearance", "setting": "[1]; iv, 1 mg/kg, IV 1 mg/kg, individual rats R01-R03, read-out: Cl_obs", "value": 99.3, "unit": "mL/min/kg"},
      {"measurement": "MRT inf", "setting": "[1]; iv, 1 mg/kg, IV 1 mg/kg, individual rats R01-R03, read-out: MRTInf_obs", "value": 7.8, "unit": "min"},
      {"measurement": "half-life", "setting": "[1]; iv, 1 mg/kg, IV 1 mg/kg, individual rats R01-R03, read-out: T1/2 (converted)", "value": 43.3, "unit": "min"},
      {"measurement": "AUC(0-inf)", "setting": "[1]; iv, 1 mg/kg, IV 1 mg/kg, read-out: AUCInf, mean", "value": 178, "unit": "ng·h/mL"},
      {"measurement": "AUC(0-t)", "setting": "[1]; iv, 1 mg/kg, IV 1 mg/kg, read-out: AUClast, mean", "value": 176, "unit": "ng·h/mL"},
      {"measurement": "clearance", "setting": "[1]; iv, 1 mg/kg, IV 1 mg/kg, read-out: Cl_obs, mean", "value": 94.2, "unit": "mL/min/kg"},
      {"measurement": "MRT inf", "setting": "[1]; iv, 1 mg/kg, IV 1 mg/kg, read-out: MRTInf_obs, mean", "value": 6.96, "unit": "min"},
      {"measurement": "half-life", "setting": "[1]; iv, 1 mg/kg, IV 1 mg/kg, read-out: T1/2, mean (converted)", "value": 37.2, "unit": "min"},
      {"measurement": "half-life", "setting": "[1]; iv, 1 mg/kg, IV administration, male SD rats, read-out: Plasma half-life (converted)", "value": "~37.2", "unit": "min"},
      {"measurement": "bioavailability", "setting": "[1]; po, 10 mg/kg, individual rats R04-R06, read-out: F (bioavailability)", "value": 1.82, "unit": "%"},
      {"measurement": "bioavailability", "setting": "[1]; po, 10 mg/kg, read-out: F (bioavailability), mean", "value": 1.82, "unit": "%"},
      {"measurement": "concentration at 0.25 h", "setting": "[1]; po, 10 mg/kg, PO 10 mg/kg, 0.25 h, read-out: Plasma concentration, mean", "value": 23.9, "unit": "ng/mL"},
      {"measurement": "concentration at 0.5 h", "setting": "[1]; [5]", "value": 14.1, "unit": "ng/mL"},
      {"measurement": "concentration at 0.5 h", "setting": "[1]; [6]", "value": 18.1, "unit": "ng/mL"},
      {"measurement": "concentration at 1 h", "setting": "[1]; [6]", "value": 5.83, "unit": "ng/mL"},
      {"measurement": "concentration at 2 h", "setting": "[1]; [6]", "value": 6.5, "unit": "ng/mL"},
      {"measurement": "concentration at 4 h", "setting": "[1]; [5]", "value": 1.99, "unit": "ng/mL"},
      {"measurement": "concentration at 4 h", "setting": "[1]; [6]", "value": 1.79, "unit": "ng/mL"},
      {"measurement": "AUC(0-inf)", "setting": "[1]; po, 10 mg/kg, PO 10 mg/kg, individual rats R04-R06, read-out: AUCInf", "value": 32.4, "unit": "ng·h/mL"},
      {"measurement": "Cmax", "setting": "[1]; po, 10 mg/kg, PO 10 mg/kg, individual rats R04-R06, read-out: Cmax", "value": 39, "unit": "ng/mL"},
      {"measurement": "MRT inf", "setting": "[1]; po, 10 mg/kg, PO 10 mg/kg, individual rats R04-R06, read-out: MRTInf_obs", "value": 111, "unit": "min"},
      {"measurement": "Tmax", "setting": "[1]; po, 10 mg/kg, PO 10 mg/kg, individual rats R04-R06, read-out: Tmax", "value": 15, "unit": "min"},
      {"measurement": "AUC(0-inf)", "setting": "[1]; po, 10 mg/kg, PO 10 mg/kg, read-out: AUCInf, mean", "value": 32.3, "unit": "ng·h/mL"},
      {"measurement": "AUC(0-t)", "setting": "[1]; po, 10 mg/kg, PO 10 mg/kg, read-out: AUClast, mean", "value": 28.6, "unit": "ng·h/mL"},
      {"measurement": "Cmax", "setting": "[1]; po, 10 mg/kg, PO 10 mg/kg, read-out: Cmax, mean", "value": 27.7, "unit": "ng/mL"},
      {"measurement": "MRT inf", "setting": "[1]; po, 10 mg/kg, PO 10 mg/kg, read-out: MRTInf_obs, mean", "value": 114, "unit": "min"},
      {"measurement": "half-life", "setting": "[1]; po, 10 mg/kg, PO 10 mg/kg, read-out: T1/2, mean (converted)", "value": 90.6, "unit": "min"},
      {"measurement": "Tmax", "setting": "[1]; po, 10 mg/kg, PO 10 mg/kg, read-out: Tmax, mean", "value": 20, "unit": "min"},
      {"measurement": "half-life", "setting": "[1]; po, 10 mg/kg, PO administration, male SD rats, read-out: Plasma half-life (converted)", "value": "~90.6", "unit": "min"},
      {"measurement": "GC cell proliferation (colony formation)", "setting": "MKN45 and AGS cells", "value": "significantly inhibited"},
      {"measurement": "IC50", "setting": "[2]", "value": "> 3000", "unit": "nM"}
    ]}
  ]
}
